# Test results: patent publication US6914045B2, “Glycopeptide antibiotics” (Wyeth Holdings Corporation, priority 2001, dated 2005)
# Columns and labels:
# Assay in all cases: in vitro antibacterial evaluation, MIC by broth dilution
# Type in all cases: cell-based
# Escherichia coli = conditions: 18 hours at 35° C.
# Method in brief: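 Broth dilution in Muller-Hinton II medium per NCCLS standard M7-A2, with an inoculum of 5×10^5 CFU/mL and antibiotic tested over 64-0.06 μg/mL. MIC was taken as the lowest concentration inhibiting visible growth.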
# Enterococcus sp. = conditions: broth dilution, 18 hours at 35° C.
# Method in brief: (§1)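 Broth dilution per NCCLS standard M7-A2 in Muller-Hinton II […], with an inoculum of 5×10^5 CFU/mL and antibiotic spanning 64-0.06 μg/mL. The MIC is the lowest concentration that inhibits growth of the organism.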
# Streptococcus sp. = conditions: broth dilution, 18 hours at 35° C.
# Method in brief: as §1
# Staphylococcus sp. = conditions: broth dilution, 18 hours at 35° C.; for MIC Staphylococcus aureus (ATCC 29213): strain ATCC 29213; for MIC Staphylococcus aureus (GC 1131): strain GC 1131; for MIC Staphylococcus aureus (GC 3051): strain GC 3051; for MIC Staphylococcus aureus (GC 3053): strain GC 3053; for MIC Staphylococcus aureus (GC 4541): strain GC 4541; for MIC Staphylococcus aureus (GC 4542): strain GC 4542; for MIC Staphylococcus aureus-SMITH (GC 4543): strain GC 4543; for MIC Staphylococcus aureus (GC 4544): strain GC 4544; for MIC Staphylococcus aureus (GC 4545): strain GC 4545; for MIC Staphylococcus haemolyticus (GC 4546): strain GC 4546; for MIC Coagulase Negative Staphylococcus (GC 4547): strain GC 4547; for MIC Coagulase Negative Staphylococcus (GC 4548): strain GC 4548; for MIC Coagulase Negative Staphylococcus (GC 4549): strain GC 4549; for MIC Coagulase Negative Staphylococcus (GC 4551): strain GC 4551; for MIC Coagulase Negative Staphylococcus (GC 6257): strain GC 6257
# Method in brief: as §1
# [1] = Enterococcus faecalis (ATCC 29212)
# [2] = Enterococcus faecalis (GC 4552)
# [3] = Enterococcus faecalis (GC 4553)
# [4] = Enterococcus faecalis (GC 4554)
# [5] = Enterococcus faecalis (GC 6189)
structure (smiles),measurement,setting,value
"CC(c1ccccc1)C1NC(=O)CNC(=O)C(CO)NC(=O)C(C(O)C2CN(Cc3ccccc3)C(=NCc3ccccc3)N2C2OC(CO)C(O)C(O)C2O)NC(=O)C(C(O)C2CN(Cc3ccccc3)C(=NCc3ccccc3)N2Cc2ccccc2)NC(=O)C(Cc2ccc(OC3OC(CO)C(OC4OC(CO)C(O)C(O)C4O)C(O)C3O)cc2)NC1=O (stereo not drawn) [Example 62, Cyclo[glycyl-β-methylphenylalanyl-O-(4-O-hexopyranosylhexopyranosyl)tyrosyl-3-[1,3-dibenzyl-2-(benzylimino)imidazolidin-4-yl]seryl-3-[1-benzyl-2-(benzylimino)-3-hexopyranosylimidazolidin-4-yl]serylseryl]]",MIC Escherichia coli (ATCC 25922),Escherichia coli,>128 mg/L
same,MIC Escherichia coli (GC 4559),Escherichia coli,>128 mg/L
same,MIC Escherichia coli (GC 4560),Escherichia coli,4 mg/L
same,MIC Enterococcus avium (GC 4558),Enterococcus sp.; Enterococcus avium (GC 4558),128 mg/L
same,MIC Enterococcus faecalis (ATCC 29212),Enterococcus sp.; [1],>128 mg/L
same,MIC Enterococcus faecalis (GC 4552),Enterococcus sp.; [2],>128 mg/L
same,MIC Enterococcus faecalis (GC 4553),Enterococcus sp.; [3],128 mg/L
same,MIC Enterococcus faecalis (GC 4554),Enterococcus sp.; [4],>128 mg/L
same,MIC Enterococcus faecalis (GC 6189),Enterococcus sp.; [5],>128 mg/L
same,MIC Enterococcus faecium (GC 2243),Enterococcus sp.; Enterococcus faecium (GC 2243),>128 mg/L
same,MIC Enterococcus faecium (GC 4556),Enterococcus sp.; Enterococcus faecium (GC 4556),>128 mg/L
same,MIC Enterococcus faecium (GC 4557),Enterococcus sp.; Enterococcus faecium (GC 4557),64 mg/L
same,MIC Enterococcus avium (GC 4558),Enterococcus sp.,128 mg/L
same,MIC Enterococcus faecalis (ATCC 29212),Enterococcus sp.,>128 mg/L
same,MIC Enterococcus faecalis (GC 2242),Enterococcus sp.,>128 mg/L
same,MIC Enterococcus faecalis (GC 2691),Enterococcus sp.,>128 mg/L
same,MIC Enterococcus faecalis (GC 3059),Enterococcus sp.,>128 mg/L
same,MIC Enterococcus faecalis (GC 4552),Enterococcus sp.,>128 mg/L
same,MIC Enterococcus faecalis (GC 4553),Enterococcus sp.,128 mg/L
same,MIC Enterococcus faecalis (GC 4554),Enterococcus sp.,>128 mg/L
same,MIC Enterococcus faecalis (GC 6189),Enterococcus sp.,>128 mg/L
same,MIC Enterococcus faecium (GC 2243),Enterococcus sp.,>128 mg/L
same,MIC Enterococcus faecium (GC 4556),Enterococcus sp.,>128 mg/L
same,MIC Enterococcus faecium (GC 4557),Enterococcus sp.,64 mg/L
same,MIC Enterococcus faecalis (GC 2242),Enterococcus sp.; strain GC 2242,>128 mg/L
same,MIC Enterococcus faecalis (GC 2691),Enterococcus sp.; strain GC 2691,>128 mg/L
same,MIC Enterococcus faecalis (GC 3059),Enterococcus sp.; strain GC 3059,>128 mg/L
same,MIC Streptococcus agalactiae (GC 4564),Streptococcus sp.,>128 mg/L
same,MIC Streptococcus pneumoniae (ATCC 6301),Streptococcus sp.,128 mg/L
same,MIC Streptococcus pneumoniae (GC 1894),Streptococcus sp.,64 mg/L
same,MIC Streptococcus pneumoniae (GC 4565),Streptococcus sp.,128 mg/L
same,MIC Streptococcus pyogenes (GC 4563),Streptococcus sp.,>128 mg/L
same,MIC Streptococcus pneumoniae (ATCC 6301),Streptococcus sp.; strain ATCC 6301,128 mg/L
same,MIC Streptococcus pneumoniae (GC 1894),Streptococcus sp.; strain GC 1894,64 mg/L
same,MIC Streptococcus pyogenes (GC 4563),Streptococcus sp.; strain GC 4563,>128 mg/L
same,MIC Streptococcus agalactiae (GC 4564),Streptococcus sp.; strain GC 4564,>128 mg/L
same,MIC Streptococcus pneumoniae (GC 4565),Streptococcus sp.; strain GC 4565,128 mg/L
same,MIC Staphylococcus aureus (ATCC 29213),Staphylococcus sp.,>128 mg/L
same,MIC Staphylococcus aureus (GC 1131),Staphylococcus sp.,>128 mg/L
same,MIC Staphylococcus aureus (GC 3051),Staphylococcus sp.,>128 mg/L
same,MIC Staphylococcus aureus (GC 3053),Staphylococcus sp.,>128 mg/L
same,MIC Staphylococcus aureus (GC 4541),Staphylococcus sp.,>128 mg/L
same,MIC Staphylococcus aureus (GC 4542),Staphylococcus sp.,>128 mg/L
same,MIC Staphylococcus aureus-SMITH (GC 4543),Staphylococcus sp.,>128 mg/L
same,MIC Staphylococcus aureus (GC 4544),Staphylococcus sp.,>128 mg/L
same,MIC Staphylococcus aureus (GC 4545),Staphylococcus sp.,>128 mg/L
same,MIC Staphylococcus haemolyticus (GC 4546),Staphylococcus sp.,>128 mg/L
same,MIC Coagulase Negative Staphylococcus (GC 4547),Staphylococcus sp.,>128 mg/L
same,MIC Coagulase Negative Staphylococcus (GC 4548),Staphylococcus sp.,>128 mg/L
same,MIC Coagulase Negative Staphylococcus (GC 4549),Staphylococcus sp.,>128 mg/L
same,MIC Coagulase Negative Staphylococcus (GC 4551),Staphylococcus sp.,>128 mg/L
same,MIC Coagulase Negative Staphylococcus (GC 6257),Staphylococcus sp.,>128 mg/L
"CC(c1ccccc1)C1NC(=O)CNC(=O)C(CO)NC(=O)C(CC2CN(Cc3ccccc3)C(=NCc3ccccc3)N2C2OC(CO)C(O)C(O)C2O)NC(=O)C(CC2CN(Cc3ccccc3)C(=NCc3ccccc3)N2Cc2ccccc2)NC(=O)C(Cc2ccc(OC3OC(CO)C(OC4OC(CO)C(O)C(O)C4O)C(O)C3O)cc2)NC1=O (stereo not drawn) [Example 73, Cyclo[3-[1,3-benzyl-2-(benzylimino)imidazolidin-4-yl]alanyl-3-[1-benzyl-2-(benzylimino)-3-hexopyranosylimidazolidin-4-yl]alanylserylglycyl-β-methylphenylalanyl-O-(4-O-hexopyranosylhexopyranosyl)tyrosyl]]",MIC Escherichia coli (ATCC 25922),Escherichia coli,>128 mg/L
same,MIC Escherichia coli (GC 4559),Escherichia coli,>128 mg/L
same,MIC Escherichia coli (GC 4560),Escherichia coli,16 mg/L
same,MIC Enterococcus avium (GC 4558),Enterococcus sp.; Enterococcus avium (GC 4558),128 mg/L
same,MIC Enterococcus faecalis (ATCC 29212),Enterococcus sp.; [1],>128 mg/L
same,MIC Enterococcus faecalis (GC 4552),Enterococcus sp.; [2],>128 mg/L
same,MIC Enterococcus faecalis (GC 4553),Enterococcus sp.; [3],>128 mg/L
same,MIC Enterococcus faecalis (GC 4554),Enterococcus sp.; [4],>128 mg/L
same,MIC Enterococcus faecalis (GC 6189),Enterococcus sp.; [5],>128 mg/L
same,MIC Enterococcus faecium (GC 2243),Enterococcus sp.; Enterococcus faecium (GC 2243),>128 mg/L
same,MIC Enterococcus faecium (GC 4556),Enterococcus sp.; Enterococcus faecium (GC 4556),>128 mg/L
same,MIC Enterococcus faecium (GC 4557),Enterococcus sp.; Enterococcus faecium (GC 4557),128 mg/L
same,MIC Enterococcus avium (GC 4558),Enterococcus sp.,128 mg/L
same,MIC Enterococcus faecalis (ATCC 29212),Enterococcus sp.,>128 mg/L
same,MIC Enterococcus faecalis (GC 2242),Enterococcus sp.,>128 mg/L
same,MIC Enterococcus faecalis (GC 2691),Enterococcus sp.,>128 mg/L
same,MIC Enterococcus faecalis (GC 3059),Enterococcus sp.,>128 mg/L
same,MIC Enterococcus faecalis (GC 4552),Enterococcus sp.,>128 mg/L
same,MIC Enterococcus faecalis (GC 4553),Enterococcus sp.,>128 mg/L
same,MIC Enterococcus faecalis (GC 4554),Enterococcus sp.,>128 mg/L
same,MIC Enterococcus faecalis (GC 6189),Enterococcus sp.,>128 mg/L
same,MIC Enterococcus faecium (GC 2243),Enterococcus sp.,>128 mg/L
same,MIC Enterococcus faecium (GC 4556),Enterococcus sp.,>128 mg/L
same,MIC Enterococcus faecium (GC 4557),Enterococcus sp.,128 mg/L
same,MIC Enterococcus faecalis (GC 2242),Enterococcus sp.; strain GC 2242,>128 mg/L
same,MIC Enterococcus faecalis (GC 2691),Enterococcus sp.; strain GC 2691,>128 mg/L
same,MIC Enterococcus faecalis (GC 3059),Enterococcus sp.; strain GC 3059,>128 mg/L
same,MIC Streptococcus agalactiae (GC 4564),Streptococcus sp.,>128 mg/L
same,MIC Streptococcus pneumoniae (ATCC 6301),Streptococcus sp.,128 mg/L
same,MIC Streptococcus pneumoniae (GC 1894),Streptococcus sp.,64 mg/L
same,MIC Streptococcus pneumoniae (GC 4565),Streptococcus sp.,128 mg/L
same,MIC Streptococcus pyogenes (GC 4563),Streptococcus sp.,>128 mg/L
same,MIC Streptococcus pneumoniae (ATCC 6301),Streptococcus sp.; strain ATCC 6301,128 mg/L
same,MIC Streptococcus pneumoniae (GC 1894),Streptococcus sp.; strain GC 1894,64 mg/L
same,MIC Streptococcus pyogenes (GC 4563),Streptococcus sp.; strain GC 4563,>128 mg/L
same,MIC Streptococcus agalactiae (GC 4564),Streptococcus sp.; strain GC 4564,>128 mg/L
same,MIC Streptococcus pneumoniae (GC 4565),Streptococcus sp.; strain GC 4565,128 mg/L
same,MIC Staphylococcus aureus (ATCC 29213),Staphylococcus sp.,>128 mg/L
same,MIC Staphylococcus aureus (GC 1131),Staphylococcus sp.,>128 mg/L
same,MIC Staphylococcus aureus (GC 3051),Staphylococcus sp.,>128 mg/L
same,MIC Staphylococcus aureus (GC 3053),Staphylococcus sp.,>128 mg/L
same,MIC Staphylococcus aureus (GC 4541),Staphylococcus sp.,>128 mg/L
same,MIC Staphylococcus aureus (GC 4542),Staphylococcus sp.,>128 mg/L
same,MIC Staphylococcus aureus-SMITH (GC 4543),Staphylococcus sp.,>128 mg/L
same,MIC Staphylococcus aureus (GC 4544),Staphylococcus sp.,>128 mg/L
same,MIC Staphylococcus aureus (GC 4545),Staphylococcus sp.,>128 mg/L
same,MIC Staphylococcus haemolyticus (GC 4546),Staphylococcus sp.,>128 mg/L
same,MIC Coagulase Negative Staphylococcus (GC 4547),Staphylococcus sp.,>128 mg/L
same,MIC Coagulase Negative Staphylococcus (GC 4548),Staphylococcus sp.,>128 mg/L
same,MIC Coagulase Negative Staphylococcus (GC 4549),Staphylococcus sp.,>128 mg/L
same,MIC Coagulase Negative Staphylococcus (GC 4551),Staphylococcus sp.,>128 mg/L
same,MIC Coagulase Negative Staphylococcus (GC 6257),Staphylococcus sp.,>128 mg/L
